# Key:
# [1] = Uptake of gabapentin following intracolonic administration of gabapentin or gabapentin prodrugs in rats; type: in vivo; conditions: dose equivalent to 25 mg gabapentin per kg
# Description: Sustained release oral dosage forms, which release drug slowly over periods of 6–24 hours, generally release a significant proportion of the dose within the colon. […] This experiment was conducted to assess the suitability of gabapentin prodrugs for use in an oral sustained release dosage form.
# Rats were obtained commercially and were pre-cannulated in the both the ascending colon and the jugular vein. Animals were conscious at the time of the experiment. All animals were fasted overnight and until 4 hours post-dosing. Gabapentin or gabapentin prodrugs (59), (63), (69), (72), (77), (79), (85), (117) and (126) were administered as a solution (in water or PEG 400) directly into the colon via the cannula at a dose equivalent to 25 mg of gabapentin per kg. Blood samples (0.5 mL) were obtained from the jugular cannula at intervals over 8 hours and were quenched immediately by addition of acetonitrile/methanol to prevent further conversion of the prodrug. Blood samples were analyzed as described below.
# • 1. In blank 1.5 mL eppendorf tubes, 300 μL of 50/50 acetonitrile/methanol and 20 μL of p-chlorophenylalanine was added as an internal standard. • 2. […]
# An API 2000 LC/MS/MS spectrometer equipped with Shidmadzu 10DVp binary pumps and a CTC HTS-PAL autosampler were used in the analysis. […] The peaks were integrated using Analyst 1.1 quantitation software.
# mouse = conditions: cited from earlier work
SMILES,gabapentin AUC relative to colonic administration of gabapentin itself [1],maximum plasma concentration of gabapentin (Cmax) relative to colonic administration of gabapentin itself [1],"toxicity (LD50, mouse) (mouse)"
"CC(OC(=O)NCC1(CC(=O)O)CCCCC1)OC(=O)C(C)C (stereo not drawn) [(77), 1-{[(α-Isobutanoyloxyethoxy)carbonyl]aminomethyl}-1-Cyclohexane Acetic Acid]",greater than 10 fold,greater than 10 fold,
NCC1(CC(=O)O)CCCCC1 [gabapentin],,,more than 8000 mg/kg
O=C1CC2(CCCCC2)CN1 [lactam (5)],,,300 mg/kg
